Common to all, as to format: biochemical
One assay deals with CDK9/Cyclin T1 (Homo sapiens, UniProt P50750). The assay can be described thus: CDK9 Enzymatic Activity Assay (Lance Kinase Activity Assay, FRET). To be noted: Table 5B, class symbols per IC50 [nM] ranges of b581; read-out: CDK9: Selectivity of CDK7 inhibition over CDK9 inhibition. An outline of the steps:
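CDK9/cyclin T1 phosphorylation of a ULight-MBP peptide was run for 1 h at room temperature in pH 7.5 HEPES buffer with MgCl2, EGTA, DTT and Tween-20. It was followed by 1 h with Eu-anti-phospho-MBP antibody (4 nM) in EDTA detection buffer. TR-FRET loss gave IC50 from 8-point, 1:3 sigmoidal dose-response curves.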

The target of another assay is T1, CDK2/CycA (Homo sapiens, UniProt P24941).
T1 construct: purchased Proqinase
The assay can be described thus: CDK2 Enzymatic Activity Assay (Lance Kinase Activity Assay, FRET). To be noted: Table 5B, class symbols per IC50 [nM] ranges of b581; read-out: CDK2: Selectivity of CDK7 inhibition over CDK2 inhibition. An outline of the steps:
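Compounds in an 8-step, 1:3 dilution series were incubated 1 h at room temperature with CDK2/CycA, ULight-MBP substrate and ATP in pH 7.5 HEPES buffer.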

The target in a further assay is CDK7/CycH/Mat1 (Homo sapiens, UniProt P50613). The assay can be described thus: CDK7 Enzymatic Activity Assay (Lance Kinase Activity Assay, FRET). To be noted: CDK7/CycH/Mat1, 25 μM ATP final; class ranges; read-out: CDK7: IC50 [nM] for CDK7 inhibition. An outline of the steps: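 TR-FRET (LANCE) kinase assay: CDK7/CycH/Mat1 phosphorylates Ulight-MBP substrate for 1 h at room temperature in pH 7.5 HEPES buffer; detection 1 h with Eu-labelled anti-phospho antibody plus EDTA.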
CDK7/CycH/Mat1, sequence (P50613 whole entry): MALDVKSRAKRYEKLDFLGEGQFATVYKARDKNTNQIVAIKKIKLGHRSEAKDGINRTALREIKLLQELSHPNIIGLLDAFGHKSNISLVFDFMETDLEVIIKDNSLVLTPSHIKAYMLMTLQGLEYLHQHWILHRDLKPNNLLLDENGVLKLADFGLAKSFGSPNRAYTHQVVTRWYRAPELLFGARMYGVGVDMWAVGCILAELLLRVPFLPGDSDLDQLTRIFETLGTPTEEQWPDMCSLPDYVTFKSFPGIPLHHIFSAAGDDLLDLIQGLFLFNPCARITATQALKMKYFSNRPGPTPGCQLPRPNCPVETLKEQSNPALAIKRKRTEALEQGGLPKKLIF

CDK9/Cyclin T1, sequence (P50750 whole entry): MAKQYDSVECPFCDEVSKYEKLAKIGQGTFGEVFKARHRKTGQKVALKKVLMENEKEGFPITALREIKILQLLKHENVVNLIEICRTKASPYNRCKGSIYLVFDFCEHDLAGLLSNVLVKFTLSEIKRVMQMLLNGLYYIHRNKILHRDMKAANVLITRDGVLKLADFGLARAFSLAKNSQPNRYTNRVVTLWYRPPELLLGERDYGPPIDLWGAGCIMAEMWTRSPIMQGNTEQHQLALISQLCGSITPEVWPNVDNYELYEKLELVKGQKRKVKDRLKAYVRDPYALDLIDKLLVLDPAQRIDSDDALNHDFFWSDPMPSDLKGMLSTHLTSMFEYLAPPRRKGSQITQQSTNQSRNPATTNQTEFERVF
CDK9/Cyclin T1, sequence (O60563 whole entry partner): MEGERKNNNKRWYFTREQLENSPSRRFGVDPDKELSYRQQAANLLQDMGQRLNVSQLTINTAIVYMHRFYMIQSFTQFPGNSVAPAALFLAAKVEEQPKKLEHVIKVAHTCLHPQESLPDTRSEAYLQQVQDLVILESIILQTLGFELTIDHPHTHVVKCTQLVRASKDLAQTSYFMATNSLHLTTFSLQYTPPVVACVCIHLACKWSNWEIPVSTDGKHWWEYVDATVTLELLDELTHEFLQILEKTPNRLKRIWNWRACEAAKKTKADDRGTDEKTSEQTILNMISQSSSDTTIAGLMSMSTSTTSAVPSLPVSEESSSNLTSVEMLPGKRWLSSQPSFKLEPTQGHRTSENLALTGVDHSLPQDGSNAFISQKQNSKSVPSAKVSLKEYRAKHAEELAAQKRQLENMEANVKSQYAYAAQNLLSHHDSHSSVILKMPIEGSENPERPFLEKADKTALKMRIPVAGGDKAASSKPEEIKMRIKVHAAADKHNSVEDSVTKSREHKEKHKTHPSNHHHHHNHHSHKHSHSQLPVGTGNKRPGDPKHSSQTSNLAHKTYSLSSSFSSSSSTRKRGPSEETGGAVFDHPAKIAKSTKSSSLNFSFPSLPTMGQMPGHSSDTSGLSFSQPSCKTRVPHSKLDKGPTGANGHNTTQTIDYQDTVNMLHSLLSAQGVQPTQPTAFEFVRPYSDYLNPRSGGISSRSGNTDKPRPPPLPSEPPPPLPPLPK

For `CC(C)c1cnn2c(NCc3ccccc3-n3cccn3)nc(N3CCC(N)C3)nc12` (stereo not drawn) [(VIII-054), N-(2-(1H-pyrazol-1-yl)benzyl)-2-(3-aminopyrrolidin-1-yl)-8-isopropylpyrazolo[1,5-a][1,3,5]triazin-4-amine], the values for the IC50 on CDK9/Cyclin T1, on CDK2/CycA and on CDK7/CycH/Mat1 were greater than 2500 nM, greater than 2500 nM and greater than 25 nM, respectively.

As to `CC(C)c1cnn2c(NCc3ccccc3C3CC3)nc(O[C@@H]3CCCNC3)nc12` (stereo in doubt) [(VII-143), N-(2-cyclopropylbenzyl)-8-isopropyl-2-(piperidin-3-yloxy)pyrazolo[1,5-a][1,3,5]triazin-4-amine], the IC50 at CDK9/Cyclin T1 fell in the range of 500 to 2500 nM; on CDK2/CycA, 500 to 2500 nM; on CDK7/CycH/Mat1, 10 to 25 nM.

In the case of `CC(C)c1cnn2c(NCc3ccccc3-n3cccn3)nc(N3CCCC4(CCNCC4)C3)nc12` [(VIII-21), N-(2-(1H-pyrazol-1-yl)benzyl)-8-isopropyl-2-(2,9-diazaspiro[5.5]undecan-2-yl)pyrazolo[1,5-a][1,3,5]triazin-4-amine], the IC50 on CDK9/Cyclin T1 is greater than 2500 nM; on CDK2/CycA, 500 to 2500 nM; at CDK7/CycH/Mat1, 5 to 10 nM.

Consider `CC(C)Oc1ccccc1CNc1nc(N[C@@H]2CCCNC2)nc2c(C(C)C)cnn12` [(VIII-32), (R)-N4-(2-isopropoxybenzyl)-8-isopropyl-N2-(piperidin-3-yl)pyrazolo[1,5-a][1,3,5]triazine-2,4-diamine], for which the figures for the IC50 on CDK9/Cyclin T1, on CDK2/CycA and on CDK7/CycH/Mat1 were greater than 2500 nM, 500 to 2500 nM and 5 to 10 nM, respectively.

For `CC(C)c1cnn2c(NCc3ccccc3-n3cccn3)nc(N3CCC4(CCNCC4)C3)nc12` [(VIII-37), N-(2-(1H-pyrazol-1-yl)benzyl)-8-isopropyl-2-(2,8-diazaspiro[4.5]decan-2-yl)pyrazolo[1,5-a][1,3,5]triazin-4-amine], the IC50 on CDK9/Cyclin T1 is greater than 2500 nM; on CDK2/CycA, greater than 2500 nM; at CDK7/CycH/Mat1 it was less than 5 nM.

Regarding `CC(C)c1cnn2c(NCc3ccccc3-n3cncn3)nc([S+]([O-])C3CCNCC3)nc12` (stereo not drawn) [(X-4), N-(2-(1H-1,2,4-triazol-1-yl)benzyl)-8-isopropyl-2-(piperidin-4-ylsulfinyl)pyrazolo[1,5-a][1,3,5]triazin-4-amine], the IC50 on CDK9/Cyclin T1 is 500 to 2500 nM; at CDK2/CycA, 50 to 500 nM; on CDK7/CycH/Mat1, less than 5 nM.

As for `CC(C)c1cnn2c(NCc3ccccc3-n3cccn3)nc(CN(C)CCCN3CCCCC3)nc12` [(XXX-6), N-(2-(1H-pyrazol-1-yl)benzyl)-8-isopropyl-2-((methyl(3-(piperidin-1-yl)propyl)amino)methyl)pyrazolo[1,5-a][1,3,5]triazin-4-amine], the figures for the IC50 on CDK9/Cyclin T1, on CDK2/CycA and on CDK7/CycH/Mat1 were greater than 2500 nM, greater than 2500 nM and greater than 25 nM, respectively.

Take `CC(C)c1cnn2c(NCc3ccccc3-n3cccn3)nc(N3CCC4(CCCN4)C3)nc12` (stereo not drawn) [(VIII-17), N-(2-(1H-pyrazol-1-yl)benzyl)-8-isopropyl-2-(1,7-diazaspiro[4.4]nonan-7-yl)pyrazolo[1,5-a][1,3,5]triazin-4-amine]: the IC50 was greater than 2500 nM on CDK9/Cyclin T1, 500 to 2500 nM on CDK2/CycA and less than 5 nM on CDK7/CycH/Mat1.

For the compound `CC(C)c1cnn2c(NCc3cccc(Cl)c3Cl)nc(O[C@@H]3CCCNC3)nc12` [(VII-103), (R)-N-(2,3-dichlorobenzyl)-8-isopropyl-2-(piperidin-3-yloxy)pyrazolo[1,5-a][1,3,5]triazin-4-amine], the results for the IC50 on CDK9/Cyclin T1, on CDK2/CycA and on CDK7/CycH/Mat1 were 50 to 500 nM, 50 to 500 nM and 10 to 25 nM, respectively.

Regarding `CC(C)c1cnn2c(NCc3cccc4[nH]ncc34)nc(O[C@@H]3CCCNC3)nc12` [(VII-36), (R)-N-((1H-indazol-4-yl)methyl)-8-isopropyl-2-(piperidin-3-yloxy)pyrazolo[1,5-a][1,3,5]triazin-4-amine], the IC50 at CDK9/Cyclin T1 was less than 50 nM; on CDK2/CycA it was less than 50 nM; at CDK7/CycH/Mat1, less than 5 nM.

Consider `CC(C)c1cnn2c(NCc3ccccc3Br)nc(O[C@@H]3CCCNC3)nc12` [(VII-100), (R)-N-(2-bromobenzyl)-8-isopropyl-2-(piperidin-3-yloxy)pyrazolo[1,5-a][1,3,5]triazin-4-amine], for which the IC50 on CDK9/Cyclin T1 is 50 to 500 nM; at CDK2/CycA, 50 to 500 nM; at CDK7/CycH/Mat1, less than 5 nM.

Consider `CC(C)c1cnn2c(NCc3cccc(F)c3-n3cccn3)nc(O[C@@H]3CCCNC3)nc12` [(VII-42), (R)-N-(3-fluoro-2-(1H-pyrazol-1-yl)benzyl)-8-isopropyl-2-(piperidin-3-yloxy)pyrazolo[1,5-a][1,3,5]triazin-4-amine], for which the IC50 on CDK9/Cyclin T1 was 50 to 500 nM; on CDK2/CycA it was less than 50 nM; at CDK7/CycH/Mat1, less than 5 nM.

With `CC(C)c1cnn2c(NCc3ccccc3-n3cccn3)nc(C(=O)NCCCCN)nc12` [(XII-5), 4-((2-(1H-pyrazol-1-yl)benzyl)amino)-N-(4-aminobutyl)-8-isopropylpyrazolo[1,5-a][1,3,5]triazine-2-carboxamide], the IC50 was greater than 2500 nM on CDK9/Cyclin T1, greater than 2500 nM on CDK2/CycA and less than 5 nM at CDK7/CycH/Mat1.

With `CC(C)c1cnn2c(NCc3ccccc3-n3cccn3)nc(O[C@@H]3CCCNC3)nc12` [(VII-03), (R)-N-(2-(1H-pyrazol-1-yl)benzyl)-8-isopropyl-2-(piperidin-3-yloxy)pyrazolo[1,5-a][1,3,5]triazin-4-amine], the IC50 at CDK9/Cyclin T1 was 50 to 500 nM; on CDK2/CycA, less than 50 nM; on CDK7/CycH/Mat1, less than 5 nM.

For the compound `CC(C)c1cnn2c(NCc3ccccc3-n3cccn3)nc(OC3COC4(CCNCC4)C3)nc12` (stereo not drawn) [(VII-05), 2-(1-oxa-8-azaspiro[4.5]decan-3-yloxy)-N-(2-(1H-pyrazol-1-yl)benzyl)-8-isopropylpyrazolo[1,5-a][1,3,5]triazin-4-amine], the IC50 is greater than 2500 nM at CDK9/Cyclin T1, greater than 2500 nM at CDK2/CycA and less than 5 nM on CDK7/CycH/Mat1.

For the compound `CC(C)c1cnn2c(NCc3ccccc3OC3CCC3)nc(O[C@@H]3CCCNC3)nc12` [(VII-097), (R)-N-(2-cyclobutoxybenzyl)-8-isopropyl-2-(piperidin-3-yloxy)pyrazolo[1,5-a][1,3,5]triazin-4-amine], the results for the IC50 at CDK9/Cyclin T1, on CDK2/CycA and on CDK7/CycH/Mat1 were greater than 2500 nM, greater than 2500 nM and greater than 25 nM, respectively.

On to `CC(C)c1cnn2c(NCc3ccccc3-c3ccccc3)nc(O[C@@H]3CCNC3)nc12` [(VII-08), (R)-N-([1,1′-biphenyl]-2-ylmethyl)-8-isopropyl-2-(pyrrolidin-3-yloxy)pyrazolo[1,5-a][1,3,5]triazin-4-amine], for which the figures for the IC50 on CDK9/Cyclin T1, at CDK2/CycA and at CDK7/CycH/Mat1 were 500 to 2500 nM, 500 to 2500 nM and 5 to 10 nM, respectively.

Take `CC(C)c1cnn2c(NCc3ccccc3NC(=O)NCc3ccccc3)nc(O[C@@H]3CCCNC3)nc12` [(VII-113), (R)-1-benzyl-3-(2-(((8-isopropyl-2-(piperidin-3-yloxy)pyrazolo[1,5-a][1,3,5]triazin-4-yl)amino)methyl)phenyl)urea]: the results for the IC50 at CDK9/Cyclin T1, at CDK2/CycA and on CDK7/CycH/Mat1 were greater than 2500 nM, greater than 2500 nM and 10 to 25 nM, respectively.

In the case of `CC(C)c1cnn2c(NC(C)c3ccccc3-n3cccn3)nc(O[C@@H]3CCCNC3)nc12` (stereo partly drawn) [(VII-06), N-(1-(2-(1H-pyrazol-1-yl)phenyl)ethyl)-8-isopropyl-2-((R)-piperidin-3-yloxy)pyrazolo[1,5-a][1,3,5]triazin-4-amine], the IC50 on CDK9/Cyclin T1 is 50 to 500 nM; at CDK2/CycA it was greater than 2500 nM; at CDK7/CycH/Mat1, less than 5 nM.

Take `CC(C)c1cnn2c(NCc3ccccc3[S+](C)[O-])nc(O[C@@H]3CCCNC3)nc12` (stereo partly drawn) [(VII-152), 8-isopropyl-N-(2-(methylsulfinyl)benzyl)-2-((R)-piperidin-3-yloxy)pyrazolo[1,5-a][1,3,5]triazin-4-amine]: the IC50 at CDK9/Cyclin T1 was in the range of 500 to 2500 nM; on CDK2/CycA, 50 to 500 nM; on CDK7/CycH/Mat1, 10 to 25 nM.

As for `Cc1ccc(CNc2nc(O[C@@H]3CCCNC3)nc3c(C(C)C)cnn23)c(OC2CCOC2)c1` (stereo partly drawn) [(VII-093), 8-isopropyl-N-(4-methyl-2-((tetrahydrofuran-3-yl)oxy)benzyl)-2-((R)-piperidin-3-yloxy)pyrazolo[1,5-a][1,3,5]triazin-4-amine], the figures for the IC50 on CDK9/Cyclin T1, at CDK2/CycA and on CDK7/CycH/Mat1 were greater than 2500 nM, greater than 2500 nM and greater than 25 nM, respectively.

For the compound `CC(C)c1cnn2c(NCc3ccccc3-n3cccn3)nc(NCCN3CCOCC3)nc12` [(VIII-046), N4-(2-(1H-pyrazol-1-yl)benzyl)-8-isopropyl-N2-(2-morpholinoethyl)pyrazolo[1,5-a][1,3,5]triazine-2,4-diamine], the IC50 is greater than 2500 nM at CDK9/Cyclin T1, greater than 2500 nM on CDK2/CycA and greater than 25 nM at CDK7/CycH/Mat1.

In the case of `CC(C)c1cnn2c(NCc3ccccc3-n3ccnc3)nc(O[C@@H]3CCCNC3)nc12` [(VII-26), (R)-N-(2-(1H-imidazol-1-yl)benzyl)-8-isopropyl-2-(piperidin-3-yloxy)pyrazolo[1,5-a][1,3,5]triazin-4-amine], the IC50 is 50 to 500 nM on CDK9/Cyclin T1, 50 to 500 nM on CDK2/CycA and less than 5 nM on CDK7/CycH/Mat1.
